Results published in PubChem BioAssay (NCI).
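Exposure lasted 48 hours, with cells grown in 96-well plates and compounds tested at five concentrations. Definition used: TGI = concentration required for complete inhibition of growth.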

Experiments:
Assay in all cases: inhibition of tumour cell growth, NCI panel, 48 h
786-0 renal = tested on: 786-0 renal
A498 renal = tested on: A498 renal
A549 NSCLC = tested on: A549 NSCLC
ACHN renal = tested on: ACHN renal
BT-549 breast = tested on: BT-549 breast
CAKI-1 renal = tested on: CAKI-1 renal
CCRF-CEM leukemia = tested on: CCRF-CEM leukemia
COLO 205 colon = tested on: COLO 205 colon
DU-145 prostate = tested on: DU-145 prostate
EKVX NSCLC = tested on: EKVX NSCLC
HCC-2998 colon = tested on: HCC-2998 colon
HCT-116 colon = tested on: HCT-116 colon
HCT-15 colon = tested on: HCT-15 colon
HL-60(TB) leukemia = tested on: HL-60(TB) leukemia
HOP-62 NSCLC = tested on: HOP-62 NSCLC
HOP-92 NSCLC = tested on: HOP-92 NSCLC
HS 578T breast = tested on: HS 578T breast
HT29 colon = tested on: HT29 colon
IGROV1 ovarian = tested on: IGROV1 ovarian
KM12 colon = tested on: KM12 colon
LOX IMVI melanoma = tested on: LOX IMVI melanoma
M14 melanoma = tested on: M14 melanoma
MALME-3M melanoma = tested on: MALME-3M melanoma
MCF7 breast = tested on: MCF7 breast
MDA-MB-231 breast = tested on: MDA-MB-231 breast
MDA-MB-435 = tested on: MDA-MB-435
MDA-N = tested on: MDA-N
MOLT-4 leukemia = tested on: MOLT-4 leukemia
NCI-H226 lung = tested on: NCI-H226 lung
NCI-H23 lung = tested on: NCI-H23 lung
NCI-H460 lung = tested on: NCI-H460 lung
NCI-H522 lung = tested on: NCI-H522 lung
NCI/ADR-RES ovarian = tested on: NCI/ADR-RES ovarian
OVCAR-3 ovarian = tested on: OVCAR-3 ovarian
OVCAR-4 ovarian = tested on: OVCAR-4 ovarian
OVCAR-5 ovarian = tested on: OVCAR-5 ovarian
OVCAR-8 ovarian = tested on: OVCAR-8 ovarian
PC-3 prostate = tested on: PC-3 prostate
RXF 393 renal = tested on: RXF 393 renal
SF-268 CNS = tested on: SF-268 CNS
SF-295 CNS = tested on: SF-295 CNS
SF-539 CNS = tested on: SF-539 CNS
SK-MEL-28 melanoma = tested on: SK-MEL-28 melanoma
SK-MEL-5 melanoma = tested on: SK-MEL-5 melanoma
SK-OV-3 ovarian = tested on: SK-OV-3 ovarian
SN12C renal = tested on: SN12C renal
SNB-19 CNS = tested on: SNB-19 CNS
SNB-75 CNS = tested on: SNB-75 CNS
SR leukemia = tested on: SR leukemia
SW-620 colon = tested on: SW-620 colon
T-47D breast = tested on: T-47D breast
TK-10 renal = tested on: TK-10 renal
UACC-257 melanoma = tested on: UACC-257 melanoma
UACC-62 melanoma = tested on: UACC-62 melanoma
UO-31 renal = tested on: UO-31 renal
K-562 leukemia = tested on: K-562 leukemia
RPMI-8226 leukemia = tested on: RPMI-8226 leukemia
SK-MEL-2 melanoma = tested on: SK-MEL-2 melanoma
U251 CNS = tested on: U251 CNS

O=C1C=CC(=O)c2c(O)c(N3CCN(c4ccccn4)CC3)c(Cl)c(O)c21
TGI (786-0 renal): 1.71 µM | TGI (A498 renal): 9.68 µM | TGI (A549 NSCLC): 11.8 µM | TGI (ACHN renal): 6.51 µM | TGI (BT-549 breast): 3.43 µM | TGI (CAKI-1 renal): 4.55 µM | TGI (CCRF-CEM leukemia): 1.84 µM | TGI (COLO 205 colon): 2.8 µM | TGI (DU-145 prostate): 10.5 µM | TGI (EKVX NSCLC): 19.6 µM | TGI (HCC-2998 colon): 5.99 µM | TGI (HCT-116 colon): 3.25 µM | TGI (HCT-15 colon): 2.48 µM | TGI (HL-60(TB) leukemia): 0.692 µM | TGI (HOP-62 NSCLC): 9.58 µM | TGI (HOP-92 NSCLC): 2.72 µM | TGI (HS 578T breast): 4.97 µM | TGI (HT29 colon): 2.05 µM | TGI (IGROV1 ovarian): 3.22 µM | TGI (KM12 colon): 7.02 µM | TGI (LOX IMVI melanoma): 0.299 µM | TGI (M14 melanoma): 2.85 µM | TGI (MALME-3M melanoma): 3.05 µM | TGI (MCF7 breast): 3.01 µM | TGI (MDA-MB-231 breast): 3.55 µM | TGI (MDA-MB-435): 9.29 µM | TGI (MDA-N): 2.81 µM | TGI (MOLT-4 leukemia): 2.01 µM | TGI (NCI-H226 lung): 10.2 µM | TGI (NCI-H23 lung): 2.45 µM | TGI (NCI-H460 lung): 8.53 µM | TGI (NCI-H522 lung): 3.5 µM | TGI (NCI/ADR-RES ovarian): 8.98 µM | TGI (OVCAR-3 ovarian): 4 µM | TGI (OVCAR-4 ovarian): 3.02 µM | TGI (OVCAR-5 ovarian): 17.9 µM | TGI (OVCAR-8 ovarian): 6.25 µM | TGI (PC-3 prostate): 4.48 µM | TGI (RXF 393 renal): 3.16 µM | TGI (SF-268 CNS): 7.44 µM | TGI (SF-295 CNS): 10.7 µM | TGI (SF-539 CNS): 3.2 µM | TGI (SK-MEL-28 melanoma): 3.37 µM | TGI (SK-MEL-5 melanoma): 2.95 µM | TGI (SK-OV-3 ovarian): 21.2 µM | TGI (SN12C renal): 3.36 µM | TGI (SNB-19 CNS): 18 µM | TGI (SNB-75 CNS): 3.43 µM | TGI (SR leukemia): 4.96 µM | TGI (SW-620 colon): 1.94 µM | TGI (T-47D breast): 3.07 µM | TGI (TK-10 renal): 4.94 µM | TGI (UACC-257 melanoma): 3.87 µM | TGI (UACC-62 melanoma): 2.01 µM | TGI (UO-31 renal): 3.68 µM

NC(=S)N/N=C/c1c[nH]c2ccccc12
TGI (786-0 renal): > 100 µM | TGI (A498 renal): > 100 µM | TGI (A549 NSCLC): > 100 µM | TGI (ACHN renal): > 100 µM | TGI (BT-549 breast): > 100 µM | TGI (CAKI-1 renal): > 100 µM | TGI (CCRF-CEM leukemia): > 100 µM | TGI (COLO 205 colon): > 100 µM | TGI (DU-145 prostate): > 100 µM | TGI (EKVX NSCLC): > 100 µM | TGI (HCT-116 colon): > 100 µM | TGI (HCT-15 colon): > 100 µM | TGI (HL-60(TB) leukemia): > 100 µM | TGI (HOP-62 NSCLC): > 100 µM | TGI (HOP-92 NSCLC): > 100 µM | TGI (HS 578T breast): > 100 µM | TGI (HT29 colon): > 100 µM | TGI (IGROV1 ovarian): > 100 µM | TGI (K-562 leukemia): > 100 µM | TGI (KM12 colon): > 100 µM | TGI (LOX IMVI melanoma): > 100 µM | TGI (M14 melanoma): > 100 µM | TGI (MALME-3M melanoma): > 100 µM | TGI (MCF7 breast): > 100 µM | TGI (MDA-MB-231 breast): > 100 µM | TGI (MDA-MB-435): > 100 µM | TGI (MDA-N): > 100 µM | TGI (MOLT-4 leukemia): > 100 µM | TGI (NCI-H226 lung): > 100 µM | TGI (NCI-H23 lung): > 100 µM | TGI (NCI-H460 lung): > 100 µM | TGI (NCI-H522 lung): > 100 µM | TGI (NCI/ADR-RES ovarian): > 100 µM | TGI (OVCAR-3 ovarian): > 100 µM | TGI (OVCAR-4 ovarian): > 100 µM | TGI (OVCAR-5 ovarian): > 100 µM | TGI (OVCAR-8 ovarian): > 100 µM | TGI (PC-3 prostate): > 100 µM | TGI (RPMI-8226 leukemia): > 100 µM | TGI (RXF 393 renal): > 100 µM | TGI (SF-268 CNS): > 100 µM | TGI (SF-295 CNS): > 100 µM | TGI (SF-539 CNS): > 100 µM | TGI (SK-MEL-2 melanoma): > 100 µM | TGI (SK-MEL-28 melanoma): > 100 µM | TGI (SK-MEL-5 melanoma): > 100 µM | TGI (SK-OV-3 ovarian): > 100 µM | TGI (SN12C renal): > 100 µM | TGI (SNB-19 CNS): > 100 µM | TGI (SNB-75 CNS): > 100 µM | TGI (SR leukemia): > 100 µM | TGI (SW-620 colon): > 100 µM | TGI (T-47D breast): > 100 µM | TGI (TK-10 renal): > 100 µM | TGI (U251 CNS): > 100 µM | TGI (UACC-257 melanoma): > 100 µM | TGI (UACC-62 melanoma): > 100 µM | TGI (UO-31 renal): > 100 µM

COc1ccc(/C=C/c2nsc(/C=C/c3ccc(OC)cc3)n2)cc1
TGI (786-0 renal): 41.8 µM | TGI (A498 renal): > 100 µM | TGI (A549 NSCLC): > 100 µM | TGI (ACHN renal): > 100 µM | TGI (BT-549 breast): > 100 µM | TGI (CAKI-1 renal): > 100 µM | TGI (CCRF-CEM leukemia): > 100 µM | TGI (COLO 205 colon): > 100 µM | TGI (DU-145 prostate): > 100 µM | TGI (EKVX NSCLC): > 100 µM | TGI (HCT-116 colon): > 100 µM | TGI (HCT-15 colon): > 100 µM | TGI (HL-60(TB) leukemia): > 100 µM | TGI (HOP-62 NSCLC): > 100 µM | TGI (HOP-92 NSCLC): > 100 µM | TGI (HS 578T breast): > 100 µM | TGI (HT29 colon): > 100 µM | TGI (IGROV1 ovarian): > 100 µM | TGI (K-562 leukemia): > 100 µM | TGI (KM12 colon): > 100 µM | TGI (LOX IMVI melanoma): > 100 µM | TGI (M14 melanoma): > 100 µM | TGI (MALME-3M melanoma): > 100 µM | TGI (MCF7 breast): > 100 µM | TGI (MDA-MB-231 breast): > 100 µM | TGI (MDA-MB-435): > 100 µM | TGI (MDA-N): > 100 µM | TGI (MOLT-4 leukemia): > 100 µM | TGI (NCI-H226 lung): > 100 µM | TGI (NCI-H460 lung): 88.7 µM | TGI (NCI-H522 lung): > 100 µM | TGI (NCI/ADR-RES ovarian): > 100 µM | TGI (OVCAR-3 ovarian): > 100 µM | TGI (OVCAR-4 ovarian): > 100 µM | TGI (OVCAR-5 ovarian): > 100 µM | TGI (OVCAR-8 ovarian): > 100 µM | TGI (PC-3 prostate): > 100 µM | TGI (RPMI-8226 leukemia): > 100 µM | TGI (RXF 393 renal): > 100 µM | TGI (SF-268 CNS): > 100 µM | TGI (SF-295 CNS): > 100 µM | TGI (SF-539 CNS): > 100 µM | TGI (SK-MEL-2 melanoma): > 100 µM | TGI (SK-MEL-28 melanoma): > 100 µM | TGI (SK-MEL-5 melanoma): > 100 µM | TGI (SK-OV-3 ovarian): > 100 µM | TGI (SNB-19 CNS): > 100 µM | TGI (SNB-75 CNS): > 100 µM | TGI (SR leukemia): > 100 µM | TGI (T-47D breast): > 100 µM | TGI (TK-10 renal): > 100 µM | TGI (U251 CNS): > 100 µM | TGI (UACC-257 melanoma): > 100 µM | TGI (UO-31 renal): > 100 µM
